# Data reported in BindingDB's records for patent US20240066136 (Cullgen (Shanghai), 2024).
# Target: DNA damage-binding protein 1 (Homo sapiens, UniProt Q16531)
# Assay: Surface Plasmon Resonance (SPR) Binding Assay
# Experimental: Surface plasmon resonance (SPR) binding assay. All SPR studies were performed on a Biacore X100 plus or T200 instrument (GE Healthcare). Immobilization of purified His-DDB1 was carried out at 25° C. using a CM5 sensor chip. The surface was pre-equilibrated in HBS-EP running buffer (10 mM HEPES, pH7.4, 150 mM NaCl, 3 mM EDTA, 0.05% P20), then activated with EDC/NHS. His-DDB1 proteins were immobilized by amine coupling to a density of 11,000-13,000 resonance units (RUs) on flow cell FC2, whereas flow cell FC1 was used as reference. Both DDB1 immobilized and reference surfaces were deactivated with 1M ethanolamine.
# DNA damage-binding protein 1, sequence (Q16531 whole entry): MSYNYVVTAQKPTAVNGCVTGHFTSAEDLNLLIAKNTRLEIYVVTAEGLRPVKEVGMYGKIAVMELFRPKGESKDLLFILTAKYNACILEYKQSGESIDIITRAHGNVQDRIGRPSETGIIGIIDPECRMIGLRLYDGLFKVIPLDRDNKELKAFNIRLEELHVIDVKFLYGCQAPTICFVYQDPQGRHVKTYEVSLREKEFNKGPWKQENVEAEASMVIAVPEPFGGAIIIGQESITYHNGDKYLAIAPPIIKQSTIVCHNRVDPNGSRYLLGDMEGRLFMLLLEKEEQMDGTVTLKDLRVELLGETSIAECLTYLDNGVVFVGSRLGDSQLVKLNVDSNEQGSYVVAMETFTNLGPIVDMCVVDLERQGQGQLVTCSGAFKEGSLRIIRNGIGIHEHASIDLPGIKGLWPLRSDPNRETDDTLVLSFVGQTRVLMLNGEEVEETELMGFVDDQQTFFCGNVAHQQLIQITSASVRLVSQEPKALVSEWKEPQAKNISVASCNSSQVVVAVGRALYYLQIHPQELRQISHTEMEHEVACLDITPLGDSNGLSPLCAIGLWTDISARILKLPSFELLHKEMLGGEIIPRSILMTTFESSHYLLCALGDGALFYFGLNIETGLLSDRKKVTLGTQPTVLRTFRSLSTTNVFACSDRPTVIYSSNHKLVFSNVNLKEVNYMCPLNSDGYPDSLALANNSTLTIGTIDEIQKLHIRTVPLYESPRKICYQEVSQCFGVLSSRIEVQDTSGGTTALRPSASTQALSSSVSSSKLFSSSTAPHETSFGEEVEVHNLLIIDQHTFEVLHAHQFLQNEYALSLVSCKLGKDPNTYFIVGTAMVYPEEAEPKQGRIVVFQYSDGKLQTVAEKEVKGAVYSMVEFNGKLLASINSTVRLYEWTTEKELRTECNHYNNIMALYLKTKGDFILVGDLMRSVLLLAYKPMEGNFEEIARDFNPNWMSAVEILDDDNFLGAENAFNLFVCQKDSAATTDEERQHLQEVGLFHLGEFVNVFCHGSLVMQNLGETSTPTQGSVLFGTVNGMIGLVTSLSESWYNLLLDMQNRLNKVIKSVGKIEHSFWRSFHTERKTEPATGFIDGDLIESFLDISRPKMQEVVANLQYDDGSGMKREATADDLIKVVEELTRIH
row,Compound,Kd
1,"CCCC(=O)Nc1ccc(C(=O)Nc2ncc([N+](=O)[O-])s2)c(NC(C)=O)c1 [US20240066136,Compound B-146]",20 to 100 µM
2,"CC[C@H](C)[C@H](N)C(=O)N[C@@H](CC(C)C)C(=O)N1CCC[C@H]1C(=O)N[C@@H](CCCCN)C(=O)N[C@H](C(=O)N[C@@H](CC(C)C)C(=O)N[C@@H](Cc1cnc[nH]1)C(=O)N[C@@H](CCCCN)C(=O)N[C@@H](CCCNC(=N)N)C(=O)N[C@H](C(=O)N[C@@H](CC(C)C)C(=O)NCC(=O)N[C@@H](CC(C)C)C(=O)N[C@@H](CO)C(=O)O)[C@@H](C)O)C(C)C [US20240066136,Peptide 1]",< 20 µM
3,"CC(=O)Nc1cc(C(=O)NCCCCCCN)ccc1C(=O)Nc1nc(C)c([N+](=O)[O-])s1 [US20240066136,Compound BL-4]",> 0.1 µM
4,"CCCC(=O)Nc1ccc(C(=O)Nc2ncc([N+](=O)[O-])s2)c(OC(=O)CCC)c1 [US20240066136,Compound B-24]",in the range around 60 µM
5,"NCCOCCCOCCOCCC(=O)Nc1ccccc1C(=O)Nc1ncc([N+](=O)[O-])s1 [US20240066136,Compound BL-3]",in the range around 60 µM
6,"H-NFTSRLNRRASFP-OH [US20240066136,Peptide 6]",< 20 µM
7,"Cc1nc(NC(=O)c2ccccc2NC(=O)CCOCCOCCCOCCN)sc1[N+](=O)[O-] [US20240066136,Compound BL-2]",in the range around 60 µM
8,"H-ILPKVLHKRTFGL-OH [US20240066136,Peptide 4]",< 20 µM
9,"H-ILPKVWHKRELGLS-OH [US20240066136,Peptide 2]",< 20 µM
10,"CC[C@H](C)[C@H](N)C(=O)N[C@@H](CC(C)C)C(=O)N1CCC[C@H]1C(=O)N[C@@H](CCCCN)C(=O)N[C@H](C(=O)N[C@@H](CC(C)C)C(=O)N[C@@H](Cc1cnc[nH]1)C(=O)N[C@@H](CCCCN)C(=O)N[C@@H](CCCNC(=N)N)C(=O)N[C@H](C(=O)N[C@@H](CC(C)C)C(=O)NCC(=O)N[C@@H](CC(C)C)C(=O)O)[C@@H](C)O)C(C)C [US20240066136,Peptide 3]",< 20 µM
11,"H-KVLHKRTLG-OH [US20240066136,Peptide 5]",< 20 µM
